Consider 23 molecules from PubChem BioAssay (NCI).

Common to all, as to assay: inhibition of tumour cell growth, NCI panel, 48 h
Test [1] concerns 786-0 renal.
Test [2] relates to CAKI-1 renal.
The test system of test [3] is CCRF-CEM leukemia.
The test system of test [4] is HCT-15 colon.
Test [5] deals with MALME-3M melanoma.
The test system of test [6] is OVCAR-4 ovarian.
Test [7] deals with SF-295 CNS.
Test [8] relates to SK-MEL-28 melanoma.
The subject of test [9] is SNB-19 CNS.
Test [10] relates to SNB-75 CNS.
Test [11] relates to UACC-62 melanoma.
Test [12] has as its system HL-60(TB) leukemia.

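Grown in 96-well plates, cells were treated for 48 hours with each compound at five concentrations. Insufficient inhibition: endpoint recorded as highest concentration tested. TGI: concentration producing complete growth inhibition.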

Take `Cc1ccc(NC(=O)CCc2nnc3s/c(=C\c4cccc([N+](=O)[O-])c4)c(=O)n23)cc1`: the TGI in test [1], in test [2], in test [3], in test [4], in test [5] and in [6] was above 100 µM throughout. In addition, the TGI in test [7], in [8], in test [9], in [10] and in test [11] was above 100 µM each time.
Turning to `Cc1ccc(C(=O)C(c2nc3n(c2O)C(=N)N=N3)c2nc3n(c2O)C(=N)N=N3)cc1` (stereo not drawn), the TGI in test [1], in [2], in test [3], in [4], in test [12] and in test [5] was above 100 µM in each case. Besides, the TGI in test [6], in test [7], in [8], in test [9], in [10] and in [11] was above 100 µM in each case.
Turning to `CC(=O)NNc1nc(C)c(C(/C=C/c2ccc(Cl)cc2)=N\N=C(N)N)s1`, the TGI in test [1], in [2], in test [3], in test [4], in test [12] and in [5] was above 100 µM each time. The TGI in test [6], in [7], in test [8], in test [9], in test [10] and in test [11] was above 100 µM in each case.
In the case of `CN1C(=S)CSc2ccccc21`, the TGI in test [1], in test [2], in [3], in test [4], in test [12] and in test [5] was above 100 µM each time. In addition, the TGI in test [6], in test [8], in [9] and in [10] was above 100 µM throughout.
Take `Cc1cc(N(CCC#N)CCC#N)ccc1/C=C1N=C(/C=C/c2ccccc2)N(c2ccc(S(N)(=O)=O)cc2)C\1=O`: the TGI in [1], in [2], in test [3], in [4], in [12] and in [5] was above 100 µM throughout. Moreover, the TGI in test [6], in test [7], in [8], in test [9], in test [10] and in test [11] was above 100 µM throughout.
On to `COc1cccc(N2C(=O)/C(=C/c3ccc(N(CCC#N)CCC#N)cc3)N=C2c2cc([N+](=O)[O-])ccc2Cl)c1`, for which the TGI in [1], in test [2], in [3], in test [4], in [12] and in test [5] was above 100 µM throughout. Further, the TGI in test [6], in [7], in test [8], in [9], in test [10] and in test [11] was above 100 µM in each case.
On to `N#CCCN(C1=NN(C(=O)CC(=O)Nc2ccc(Cl)cc2)C(c2ccccc2)C1)c1ccc(Cl)cc1` (stereo not drawn), for which the TGI in test [1], in [2], in [3], in [4], in test [12] and in test [5] was above 100 µM throughout. Also, the TGI in test [6], in [7], in test [8], in test [9], in test [10] and in [11] was above 100 µM each time.
On to `Cc1cc(Cl)ccc1NC(=O)CC1SC(=NC(=O)c2ccccc2Cl)NC1=O` (stereo not drawn), for which the TGI in test [1] was 35.7 µM; in test [2] it was 33.9 µM; in test [3] it was 8.66 µM; in test [4], 33.1 µM; in test [12] it was 4.72 µM; in [5], 37.1 µM. For the same molecule, the TGI in [6] is 38.6 µM; in test [7], above 100 µM; in test [8], 44.8 µM; in test [9], above 100 µM; in test [10] it was 35 µM; in [11], 71.2 µM.
Take `CC(NC(=O)C(N)CC(=O)O)C(=O)OC12CC3CC(CC(C3)C1)C2` (stereo not drawn): the TGI in [1], in test [2], in test [3], in test [4], in test [6] and in test [8] was above 100 µM in each case. Also, the TGI in test [9], in [10] and in test [11] was above 100 µM each time.
Consider `N#Cc1sc2c(c1OC(=O)c1ccc(Cl)cc1)c(=O)n(-c1ccccc1)c(=S)n2-c1ccccc1`, for which the TGI is 63.6 µM in test [1]; 60.3 µM in test [2]; 31.2 µM in [3]; 35.4 µM in [4]; 46.6 µM in test [12]; 54.4 µM in test [5]. The TGI was 76.7 µM in test [6]; 65.9 µM in [7]; 47.2 µM in test [8]; 61.4 µM in test [9]; above 100 µM in test [10]; 35.6 µM in [11].
With `O=C1N=CN=C2C=CC(Cl)=C(I)C12` (stereo not drawn), the TGI in [1], in test [2], in [3], in [12], in test [5] and in [6] was above 100 µM each time. The TGI in test [7], in [8], in test [9] and in test [11] was above 100 µM each time.
Regarding `CC(C)(C)C(O)CC(O)(C(F)(F)F)C(F)(F)F` (stereo not drawn), the TGI in [1], in test [2], in test [3], in test [4], in test [12] and in test [5] was above 100 µM each time. Besides, the TGI in test [6], in test [7], in test [8], in test [9], in [10] and in test [11] was above 100 µM throughout.
As for `CCOC(CN(C)C(=O)Nc1ccc(Cl)c(Cl)c1)OCC`, the TGI in test [1], in [2], in [3], in test [4], in test [12] and in [5] was above 10 µM throughout. Also, the TGI in [6], in test [7], in test [8], in test [9], in [10] and in [11] was above 10 µM throughout.
Take `O=c1ccn(Cc2ccccc2CCl)c(=O)[nH]1`: the TGI in test [1] is 38 µM; in [2] it was 64 µM; in [3], above 100 µM; in test [4], 35.8 µM; in test [12] it was above 100 µM; in [5], 40.6 µM. Further, the TGI in [6] is above 100 µM; in test [7], 64.1 µM; in [8], above 100 µM; in test [9], above 100 µM; in test [10] it was above 100 µM; in [11], 63.4 µM.
Turning to `CO[C@H](C(=O)O[C@H]1C(=O)N2CC[C@@H]3CCC[C@H]1C32C)c1ccccc1` (stereo partly drawn), the TGI in [1], in test [2], in [3], in [12], in test [5] and in [6] was above 100 µM each time. Moreover, the TGI in test [7], in test [8], in test [9] and in test [11] was above 100 µM throughout.
In the case of `O=C1C[C@@H]2[C@@H](CCC23CCCC3)N1`, the TGI in [1], in test [2], in [3], in test [4], in test [12] and in [5] was above 100 µM each time. The TGI in test [6], in test [7], in test [8], in test [9], in test [10] and in test [11] was above 100 µM each time.
For `Cc1ccc(S(=O)(=O)NN=C2C(C)(C)CC2(C)C)cc1`, the TGI in [1], in test [2], in [3], in test [4], in [12] and in test [5] was above 100 µM throughout. Also, the TGI in test [6], in test [7], in test [8], in [9], in [10] and in test [11] was above 100 µM each time.
In the case of `CCC(=O)N(c1ccccc1)C(C)CN1CCC(O)(c2cccc(C(F)(F)F)c2)CC1` (stereo not drawn), the TGI was 40.1 µM in [1]; above 100 µM in test [2]; 50.1 µM in [3]; 90.9 µM in test [4]; 39.3 µM in test [12]; above 100 µM in test [6]. The TGI in test [7] is above 100 µM; in [8] it was 61.2 µM; in test [9], above 100 µM; in test [10] it was 76.3 µM; in [11] it was 49.1 µM.
Take `O=C(CSc1nnc(Cc2ccccc2)o1)Nc1ccc(Cl)cc1[N+](=O)[O-]`: the TGI stood at 31 µM in [1]; 54.4 µM in test [3]; 32.2 µM in test [4]; 61.5 µM in test [12]; 30.2 µM in test [5]; 33.9 µM in [6]. The TGI is 34.2 µM in test [7]; 29 µM in [8]; 31 µM in test [9]; 39.5 µM in test [10]; 30.5 µM in test [11].
Turning to `COC(=O)C1CC(c2ccc(Cl)cc2)=NO1` (stereo not drawn), the TGI in test [1], in [3], in test [4], in [12], in test [5] and in test [6] was above 100 µM throughout. Further, the TGI in test [7], in test [8], in test [10] and in test [11] was above 100 µM in each case.
Regarding `CC1OC(OC2C(OC(=O)[C@]34CCC(C)(C)CC3C3=CCC5[C@@]6(C)C[C@H](O)[C@H](OC7OC(COC8OC(CO)C(O)C(O)C8O)C(O)C(O)C7O)[C@@](C)(C(=O)O)C6CC[C@@]5(C)C3(C)CC4)OCC(O)C2O)C(O)C(O)C1OC1OCC(O)C(O)C1O` (stereo partly drawn), the TGI in test [1], in test [2], in test [3], in test [4], in [12] and in test [5] was above 100 µM each time. The TGI in [7], in test [8], in [9], in [10] and in test [11] was above 100 µM in each case.
On to `N#CC(C(=O)/C(=N/NC(=O)c1ccccc1O)C(C#N)c1ccc(Br)cc1)c1ccc(Br)cc1` (stereo not drawn), for which the TGI came out at 27 µM in [1]; 76.4 µM in [3]; 25.5 µM in [4]; 24.6 µM in [5]; 29.4 µM in test [6]; 28.6 µM in [7]. In addition, the TGI in [8] amounted to 28.2 µM; in test [9], 24.3 µM; in test [10] it was 9.98 µM; in test [11] it was 28.2 µM.
`CN(C)CCCOc1ccc(/C=C2/CCC/C(=C/c3ccc(OCCCN(C)C)cc3)C2=O)cc1`: the TGI in test [1] stood at 2.59 µM; in test [3], 3.84 µM; in [4] it was 2.5 µM; in test [12] it was 3.65 µM; in [5], 3.32 µM; in test [6], 7.1 µM. The TGI in [7] was 3.65 µM; in test [8], 4 µM; in test [9] it was 4.74 µM; in test [10] it was 2.61 µM; in [11], 3.74 µM.
